From patent US20250163043A1 (TRANSTHERA SCIENCES (NANJING), INC., priority 2021, published 2025)

Columns and labels:
CDK2/CycA2 = CDK2/CycA2 (Homo sapiens, UniProt P24941); experiment: ADP-Glo kinase assay on CDK enzymatic activity, CDK2/CycA2; format: biochemical; details: 10 concentrations from 10 μM, 4-fold, 60 min room temperature
In short: (§1)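 Ten-point, 4-fold dilution series from 10 μM final was preincubated 10 min with kinase, then 60 min at room temperature with CDKtide substrate and ATP. ADP-Glo luminescence gave inhibition relative to 1 μM AZD4573 and 0.5% DMSO controls; IC50 from curve fitting.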

[1] = system: MV-4-11 (human myelomonocytic leukemia cells); experiment: CCK-8 cell proliferation assay, MV-4-11; format: cell-based; details: MV4-11, 24 h incubation, 11 concentrations from 5000 nM, 3-fold, read-out: MV-4-11 cell proliferation IC50 (class)
Experimental: Test samples: the compounds of the present invention, having structures shown above.
MV-4-11 (human myelomonocytic leukemia cells) and NCI-H929 (human myeloma cells).
The compounds were dissolved in DMSO and diluted 3-fold in the 96-well plate to obtain stock solutions with 11 concentration gradients. Each cell was inoculated into a 96-well plate, and the diluted compound stock solution was added to the 96-well plate to obtain a series of 11 concentration gradients of compound solutions with final concentrations of 5000 nM starting and 3-fold gradient decreasing, wherein the final DMSO content was […]. There was a medium containing 1‰ DMSO in the negative control well. The treated cells were incubated at 37° C. with 5% CO2 and 95% humidity, wherein MV-4-11 were incubated for 24 h and NCI-H929 for 72 h. After incubation was completed, each well was added with 10 μL of CCK-8 reagent, incubated for 1-3 h at room temperature and placed in the microplate reader, and the absorbance was read at 450 nm.
The inhibition rate was calculated according to the following formula: […]
ODcmpd: compound absorbance; ODpositive: average value of the absorbance of positive control without compound; ODvehicle: average value of the absorbance of solvent vehicle control.
IC50 values were fitted using GraphPad 7.0 based on inhibition rates of compounds at different concentrations.

CDK9/CycT1 = CDK9/CycT1 (Homo sapiens, UniProt P50750); experiment: ADP-Glo kinase assay on CDK enzymatic activity, CDK9/CycT1; format: biochemical; details: 10 concentrations from 10 μM, 4-fold, 60 min room temperature
Chain of CDK9/CycT1 (P50750 whole entry): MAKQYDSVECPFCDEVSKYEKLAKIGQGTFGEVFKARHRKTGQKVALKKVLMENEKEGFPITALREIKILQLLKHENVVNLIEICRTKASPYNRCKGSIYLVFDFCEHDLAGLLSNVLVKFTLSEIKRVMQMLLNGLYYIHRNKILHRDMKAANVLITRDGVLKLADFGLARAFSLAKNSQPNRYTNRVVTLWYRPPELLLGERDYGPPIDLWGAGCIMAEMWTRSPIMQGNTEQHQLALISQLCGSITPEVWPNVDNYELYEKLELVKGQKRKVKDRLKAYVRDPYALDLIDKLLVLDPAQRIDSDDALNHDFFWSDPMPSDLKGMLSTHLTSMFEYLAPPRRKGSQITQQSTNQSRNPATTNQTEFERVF
Chain of CDK9/CycT1 (O60563 whole entry partner): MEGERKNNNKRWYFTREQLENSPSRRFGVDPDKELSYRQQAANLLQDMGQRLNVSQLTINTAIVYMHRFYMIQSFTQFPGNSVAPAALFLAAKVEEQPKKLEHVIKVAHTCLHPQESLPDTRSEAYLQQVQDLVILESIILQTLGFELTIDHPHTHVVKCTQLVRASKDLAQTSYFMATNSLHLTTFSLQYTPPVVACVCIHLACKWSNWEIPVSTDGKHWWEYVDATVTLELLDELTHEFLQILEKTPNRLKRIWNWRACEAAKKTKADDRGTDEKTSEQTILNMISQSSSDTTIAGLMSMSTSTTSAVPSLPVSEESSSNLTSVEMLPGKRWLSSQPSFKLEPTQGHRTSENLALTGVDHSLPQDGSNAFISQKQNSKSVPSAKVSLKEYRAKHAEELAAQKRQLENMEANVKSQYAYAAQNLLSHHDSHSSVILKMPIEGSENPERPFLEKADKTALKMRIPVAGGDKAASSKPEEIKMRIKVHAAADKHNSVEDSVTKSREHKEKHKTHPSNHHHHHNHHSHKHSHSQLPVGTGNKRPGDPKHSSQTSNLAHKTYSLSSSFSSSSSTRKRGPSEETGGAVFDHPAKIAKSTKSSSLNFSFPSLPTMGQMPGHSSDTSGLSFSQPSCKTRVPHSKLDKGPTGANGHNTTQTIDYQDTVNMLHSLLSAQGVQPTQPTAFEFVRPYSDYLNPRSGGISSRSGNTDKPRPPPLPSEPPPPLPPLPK
In short: as §1

CDK3/CycE1 = CDK3/CycE1 (Homo sapiens, UniProt Q00526); experiment: ADP-Glo kinase assay on CDK enzymatic activity, CDK3/CycE1; format: biochemical; details: 10 concentrations from 10 μM, 4-fold, 60 min room temperature
Chain of CDK3/CycE1 (Q00526 whole entry, species assumed): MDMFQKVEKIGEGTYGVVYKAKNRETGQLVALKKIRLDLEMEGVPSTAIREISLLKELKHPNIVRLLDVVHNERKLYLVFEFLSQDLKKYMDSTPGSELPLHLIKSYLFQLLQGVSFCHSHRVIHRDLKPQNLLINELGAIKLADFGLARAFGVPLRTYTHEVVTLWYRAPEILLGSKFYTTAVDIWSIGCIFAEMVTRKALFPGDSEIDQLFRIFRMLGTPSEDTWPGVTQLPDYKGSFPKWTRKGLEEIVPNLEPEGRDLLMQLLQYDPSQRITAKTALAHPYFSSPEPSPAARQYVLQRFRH
Chain of CDK3/CycE1 (P24864 whole entry partner, species assumed): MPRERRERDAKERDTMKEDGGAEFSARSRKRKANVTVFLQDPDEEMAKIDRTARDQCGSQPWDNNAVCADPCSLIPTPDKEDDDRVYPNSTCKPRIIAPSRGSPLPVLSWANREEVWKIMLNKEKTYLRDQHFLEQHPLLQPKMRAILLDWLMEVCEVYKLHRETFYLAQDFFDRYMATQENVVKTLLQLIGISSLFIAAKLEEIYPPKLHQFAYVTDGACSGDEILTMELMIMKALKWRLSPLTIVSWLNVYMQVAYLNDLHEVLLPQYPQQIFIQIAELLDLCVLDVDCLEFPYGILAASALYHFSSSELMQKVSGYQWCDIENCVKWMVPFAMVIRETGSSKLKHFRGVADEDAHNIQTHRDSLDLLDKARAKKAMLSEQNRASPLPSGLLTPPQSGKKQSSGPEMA
In short: as §1

CDK5/p25NCK = CDK5/p25NCK (Homo sapiens, UniProt Q00535); experiment: ADP-Glo kinase assay on CDK enzymatic activity, CDK5/p25NCK; format: biochemical; details: 10 concentrations from 10 μM, 4-fold, 60 min room temperature
Chain of CDK5/p25NCK (Q00535 whole entry, species assumed): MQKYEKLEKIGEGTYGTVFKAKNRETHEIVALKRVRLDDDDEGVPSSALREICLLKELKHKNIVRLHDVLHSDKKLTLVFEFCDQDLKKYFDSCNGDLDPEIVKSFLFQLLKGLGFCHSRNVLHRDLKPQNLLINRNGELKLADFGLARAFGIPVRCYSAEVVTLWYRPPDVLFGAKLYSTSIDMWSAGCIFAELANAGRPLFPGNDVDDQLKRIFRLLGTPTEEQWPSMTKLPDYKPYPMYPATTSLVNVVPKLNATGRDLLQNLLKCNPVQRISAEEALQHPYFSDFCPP
Chain of CDK5/p25NCK (Q15078 99-307 partner limits assumed, species assumed): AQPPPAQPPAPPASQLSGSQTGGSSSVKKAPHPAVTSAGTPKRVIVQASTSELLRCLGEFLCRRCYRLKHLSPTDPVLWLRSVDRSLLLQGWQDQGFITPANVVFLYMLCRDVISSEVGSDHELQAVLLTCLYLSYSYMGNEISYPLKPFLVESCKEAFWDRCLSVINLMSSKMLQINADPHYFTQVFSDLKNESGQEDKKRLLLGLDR
In short: as §1

CDK1/CycE1 = CDK1/CycE1 (Homo sapiens, UniProt P06493); experiment: ADP-Glo kinase assay on CDK enzymatic activity, CDK1/CycE1; format: biochemical; details: ADP-Glo; 10 concentrations from 10 μM, 4-fold; 60 min room temperature; read-out: CDK1/CycE1/nM (IC50)
Chain of CDK1/CycE1 (P06493 whole entry, species assumed): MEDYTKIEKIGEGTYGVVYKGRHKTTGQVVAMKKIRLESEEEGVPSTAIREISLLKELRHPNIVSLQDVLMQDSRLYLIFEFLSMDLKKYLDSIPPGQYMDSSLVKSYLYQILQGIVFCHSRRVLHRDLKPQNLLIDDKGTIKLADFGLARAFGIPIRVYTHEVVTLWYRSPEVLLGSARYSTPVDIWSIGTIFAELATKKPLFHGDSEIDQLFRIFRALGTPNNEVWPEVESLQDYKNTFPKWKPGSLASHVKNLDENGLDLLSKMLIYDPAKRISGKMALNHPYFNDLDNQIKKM
Chain of CDK1/CycE1 (P24864 whole entry partner, species assumed): as the sequence (P24864 whole entry partner, species assumed) above
In short: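 Compounds in 10-point 4-fold dilutions from 10 μM final, preincubated 10 min with kinase, then substrate/ATP added; 60 min reaction at room temperature. ADP-Glo luminescence read.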

Compound | IC50 (CDK2/CycA2) [nM] | IC50 [1] [nM] | IC50 (CDK9/CycT1) [nM] | IC50 (CDK3/CycE1) [nM] | IC50 (CDK5/p25NCK) [nM] | IC50 (CDK1/CycE1) [nM]
CN[C@@H]1CC[C@H](Nc2cc3c(NC(C)C)nc(C#N)cc3cn2)C1 [Compound 32, 1-(isopropylamino)-7-(((1S,3R)-3-(methylamino)cyclopentyl)amino)-2,6-naphthyridine-3-carbonitrile] | 1080 | 400 to 1000 | 7 | 2050 | 1580 | –
CC(=O)N[C@@H]1CCC[C@H](C(=O)Nc2cc3c(NC4(C)CC4)nc(C#N)cc3cn2)C1 [Compound 17, (1S,3R)-3-acetamido-N-(7-cyano-5-((1-methylcyclopropyl)amino)-2,6-naphthyridin-3-yl)cyclohexane-1-carboxamide] | 279 | 400 to 1000 | 4 | 750 | 664 | –
CC(=O)N[C@@H]1CCC[C@H](C(=O)Nc2cc3c(N4CC[C@@H](N)C4)nc(C#N)cc3cn2)C1 [Compound 20, (1S,3R)-3-acetamido-N-(5-((R)-3-aminopyrrolidin-1-yl)-7-cyano-2,6-naphthyridin-3-yl)cyclohexane-1-carboxamide] | 2150 | > 1000 | 11 | 1750 | 4320 | –
CC(=O)N[C@@H]1CCC[C@H](C(=O)Nc2cc3c(NC4CC4)nc(C#N)cc3cn2)C1 [Compound 16, (1S,3R)-3-acetamido-N-(7-cyano-5-(cyclopropylamino)-2,6-naphthyridin-3-yl)cyclohexane-1-carboxamide] | 1460 | > 1000 | 20 | 951 | 2500 | –
CC(=O)N[C@H]1CC[C@H](Nc2ncc3cc(C#N)nc(NC(C)C)c3n2)C1 [Compound 46, N-((1S,3S)-3-((6-cyano-8-(isopropylamino)pyrido[3,4-d]pyrimidin-2-yl)amino)cyclopentyl)acetamide] | 33 | 400 to 1000 | 3 | 271 | 72 | –
CC(=O)N[C@@H]1CCC[C@H](C(=O)Nc2cc3c(N4CCC(F)(F)CC4)nc(C#N)cc3cn2)C1 [Compound 23, (1S,3R)-3-acetamido-N-(7-cyano-5-(4,4-difluoropiperidin-1-yl)-2,6-naphthyridin-3-yl)cyclohexane-1-carboxamide] | 3870 | > 1000 | 38 | 5650 | > 10000 | –
CC(C)Nc1nc(C#N)cc2cnc(N[C@H]3CCCN(C)C3)cc12 [Compound 57, (S)-1-(isopropylamino)-7-((1-methylpiperidin-3-yl)amino)-2,6-naphthyridine-3-carbonitrile] | 427 | > 1000 | 30 | 2520 | 1760 | –
CC(=O)N[C@@H]1CC[C@H](Nc2cc3c(NC(C)C)nc(C#N)cc3cn2)C1 [Compound 47, N-((1R,3S)-3-((7-cyano-5-(isopropylamino)-2,6-naphthyridin-3-yl)amino)cyclopentyl)acetamide] | 494 | 400 to 1000 | 17 | 987 | 1050 | –
CC(C)Nc1nc(C#N)cc2cnc(N[C@H]3CCNC3)cc12 [Compound 31, (S)-1-(isopropylamino)-7-(pyrrolidin-3-ylamino)-2,6-naphthyridine-3-carbonitrile] | 594 | 400 to 1000 | 4 | 1300 | 1480 | –
CC(C)Nc1nc(C#N)cc2cnc(N[C@H]3CCC(=O)NC3)nc12 [Compound 106, (S)-8-(isopropylamino)-2-((6-oxopiperidin-3-yl)amino)pyrido[3,4-d]pyrimidine-6-carbonitrile] | – | 400 to 1000 | 4 | 29 | – | 26
CC(=O)N[C@H]1CCC[C@H](C(=O)Nc2cc3c(NC(C)C)nc(C#N)cc3cn2)C1 [Compound 25, (1S,3S)-3-acetamido-N-(7-cyano-5-(isopropylamino)-2,6-naphthyridin-3-yl)cyclohexane-1-carboxamide] | 521 | 400 to 1000 | 12 | 602 | 1210 | –
CC(C)Nc1nc(C#N)cc2cnc(N[C@@H]3CNCC[C@@H]3F)cc12 [Compound 42, 7-(((3R,4S)-4-fluoropiperidin-3-yl)amino)-1-(isopropylamino)-2,6-naphthyridine-3-carbonitrile] | 2020 | > 1000 | 18 | 1300 | 3040 | –
CC(C)Nc1nc(C#N)cc2cnc(NC(=O)[C@H]3CCC[C@H](N)C3)cc12 [Compound 27, (1S,3S)-3-amino-N-(7-cyano-5-(isopropylamino)-2,6-naphthyridin-3-yl)cyclohexane-1-carboxamide] | 2520 | 400 to 1000 | 51 | 1630 | 3960 | –
CC(C)Nc1nc(C#N)cc2cnc(N[C@H]3C[C@@H](CO)C3)nc12 [Compound C29, 2-(((1s,3s)-3-(hydroxymethyl)cyclobutyl)amino)-8-(isopropylamino)pyrido[3,4-d]pyrimidine-6-carbonitrile] | 35 | 400 to 1000 | 3 | – | – | 51
CC(=O)N[C@@H]1CCC[C@H](C(=O)Nc2cc3c(N4CC[C@@](C)(O)C4)nc(C#N)cc3cn2)C1 [Compound 22, (1S,3R)-3-acetamido-N-(7-cyano-5-((R)-3-hydroxy-3-methylpyrrolidin-1-yl)-2,6-naphthyridin-3-yl)cyclohexane-1-carboxamide] | 4510 | 400 to 1000 | 17 | 1910 | > 10000 | –
CC(C)Nc1nc(C#N)cc2cnc(N[C@@H]3CN[C@H](CO)C3)cc12 [Compound 37, 7-(((3S,5S)-5-(hydroxymethyl)pyrrolidin-3-yl)amino)-1-(isopropylamino)-2,6-naphthyridine-3-carbonitrile] | 520 | > 1000 | 5 | 1130 | 941 | –
CC(C)Nc1nc(C#N)cc2cnc(N[C@H]3CC[C@@H](O)C3)cc12 [Compound 36, 7-(((1S,3R)-3-hydroxycyclopentyl)amino)-1-(isopropylamino)-2,6-naphthyridine-3-carbonitrile] | 4 | 400 to 1000 | 1 | 23 | 7 | –
CC(C)Oc1nc(C#N)cc2cnc(N[C@H]3C[C@@H](N)C3)cc12 [Compound 195, 7-(((1s,3s)-3-aminocyclobutyl)amino)-1-isopropoxy-2,6-naphthyridine-3-carbonitrile] | 540 | 400 to 1000 | 2 | – | – | 14
N#Cc1cc2cnc(N[C@H]3CCCNC3)cc2c(C2CCCCC2)n1 [Compound 193, (S)-1-cyclohexyl-7-(piperidin-3-ylamino)-2,6-naphthyridine-3-carbonitrile] | 679 | 400 to 1000 | 5 | – | – | 398
CC(C)Nc1nc(C#N)cc2cnc(N[C@H]3CCC[C@@H](O)C3)cc12 [Compound 41, 7-(((1S,3R)-3-hydroxycyclohexyl)amino)-1-(isopropylamino)-2,6-naphthyridine-3-carbonitrile] | – | > 1000 | 6 | 90 | – | –
